Assay results taken from patent publication US8975249B2, “Heterocyclic compounds and uses thereof” (Celgene Avilomics Research, Inc., priority 2010, dated 2015).

What was measured:
[1] = biological target: WT EGFR (A431 cells) (Homo sapiens (Human), UniProt P00533); assay: Phospho-EGFR signaling immunoblot in A431 cells (WT EGFR); assay type: cell-based; settings: 1 hr treatment, EGF stimulated, phospho-EGFR (Y1068)
Experimental: (§1) A431 human epidermoid carcinoma, H1975 human NSCLC and HCC827 human NSCLC adenocarcinoma cells were obtained from the American Type Culture Center (Manassas, Va.). A431 cells were grown in DMEM (Invitrogen, Carlsbad, Calif.) supplemented with 10% FBS (HyClone, South Logan, Utah) and 1% Penicillin-Streptomycin (P/S, Lonza, Walkersville, Md.).
(§2) All primary antibodies were obtained from Cell Signaling (Danvers, Mass.) and used at 1:1000. Secondary antibodies were used at 1:10,000. Goat anti-mouse IgG IRDye 800CW antibody was obtained from LiCor Biosciences (Lincoln, Nebr.) and goat anti-rabbit IgG Alexa Fluor 680 was obtained from Invitrogen.
(§3) Cells were grown in 12-well plates (Corning, Coring, N.Y.) to 90% confluence and then incubated in low-serum (0.1% FBS) media for 16-18 hr. […] A431 cells were then stimulated with 50 ng/ml EGF (Peprotech, Rocky Hill, N.J.) for 15 min. After treatment, cell monolayers were washed with cold PBS (Invitrogen) and immediately lysed by scrapping into 60 uL cold Cell Extraction Buffer (Invitrogen) supplemented with Complete Protease inhibitors (Roche, Indianapolis, Ind.) and PhosphoSTOP (Roche) phosphatase inhibitors.
(§4) Phospho-protein signals were quantitated using Odyssey Infrared Imaging (Li-Cor Biosciences).
(§5) To assess phosphor-EGFR signaling, blots were probed with rabbit anti-Phospho-EGFR (Y1068) and mouse total anti-EGFR antibodies. Phospho-EGFR signal was normalized to total EGFR expression for each sample. […] Normalized data was fitted using a sigmoidal curve analysis program (Graph Pad Prism version 5) with variable Hill slope to determine the EC50 values.
(§6) The compound numbers recited in Table 4 correspond to the compound numbers in Table 1.

[2] = biological target: EGFR (WT) (Homo sapiens (Human), UniProt P00533); assay: Omnia biochemical assay, EGFR-WT active enzyme; settings: [EGFR-WT]=5 nM, [ATP]=15 uM, 30 min pre-incubation
Experimental: Kinase reactions were started with the addition of 45 μL of the ATP/Tyr-Sox peptide substrate mix and monitored every 71 seconds for 60 minutes at λex360/λem485 in a Synergy^4 plate reader from BioTek (Winooski, Vt.).
The compound numbers correspond to the compound numbers in Table 1.

[3] = system: HCC827 cells (EGFR delE746-A750); assay: Cell proliferation (CellTiter Glo), HCC827 cells; settings: proliferation GI50 WT EGFR / HCC827
[4] = system: H1975 cells (EGFR L858R/T790M); assay: Cell proliferation (CellTiter Glo), H1975 cells; settings: proliferation GI50 WT EGFR / H1975
[5] = biological target: EGFR double mutation L858R/T790M (H1975 cells) (Homo sapiens (Human), UniProt P00533, L858R/T790M); assay: Phospho-EGFR signaling immunoblot in H1975 cells; assay type: cell-based; settings: for EC50: H1975 cells, 1 hr treatment, phospho-EGFR (Y1068); for Ratio WT/mutant (H1975): signaling EC50 WT EGFR / H1975
Experimental: as §1, §2, §3, §4, §5, §6

Row | Compound | EC50 [1] [nM] | IC50 [2] [nM] | EC50 [5] [nM] | Ratio WT/mutant (H1975) [5] | Ratio WT/mutant (HCC827) [3] | Ratio WT/mutant (H1975) [4]
1 | C=CC(=O)Nc1cccc(Oc2nc(Nc3ccc(N4CCN(S(C)(=O)=O)CC4)cc3OC)ncc2C(F)(F)F)c1 [Compound I-22, N-(3-(2-(2-methoxy-4-(4-(methylsulfonyl)piperazin-1-yl)phenylamino)-5-(trifluoromethyl)pyrimidin-4-yloxy)phenyl)acrylamide] | > 1000 | 30 to 100 | 100 to 500 | >35 | >35 | >10
2 | C=CC(=O)Nc1cccc(Nc2nc(Nc3ccc(N4CCN(S(C)(=O)=O)CC4)cc3OC)ncc2Cl)c1 [Compound I-41, N-(3-(5-chloro-2-(2-methoxy-4-(4-(methylsulfonyl)piperazin-1-yl)phenylamino)pyrimidin-4-ylamino)phenyl)acrylamide] | > 1000 | 30 to 100 | > 1000 | >1 | >20 | >1
3 | C=CC(=O)Nc1cccc(Oc2nc(Nc3ccc(N4CCN(C(=O)CO)CC4)cc3OC)ncc2C(F)(F)F)c1 [Compound I-11, N-(3-(2-(4-(4-(2-hydroxyacetyl)piperazin-1-yl)-2-methoxyphenylamino)-5-(trifluoromethyl)pyrimidin-4-yloxy)phenyl)acrylamide] | > 1000 | 10 to 30 | 100 to 500 | >15 | >45 | >5
4 | C=CC(=O)Nc1cccc(Nc2nc(Nc3ccc(N4CCN(C(=O)CO)CC4)cc3OC)ncc2Cl)c1 [Compound I-12, N-(3-(5-chloro-2-(4-(4-(2-hydroxyacetyl)piperazin-1-yl)-2-methoxyphenylamino)pyrimidin-4-ylamino)phenyl)acrylamide] | > 1000 | 10 to 30 | > 1000 | >1 | >30 | >1
5 | C=CC(=O)Nc1cccc(Oc2nc(Nc3ccc(N4CCN(S(C)(=O)=O)CC4)cc3OC)ncc2Cl)c1 [Compound I-26, N-(3-(5-chloro-2-(2-methoxy-4-(4-(methylsulfonyl)piperazin-1-yl)phenylamino)pyrimidin-4-yloxy)phenyl)acrylamide] | > 1000 | 10 to 30 | 100 to 500 | >40 | >35 | >1
6 | C=CC(=O)Nc1cccc(Oc2nc(Nc3ccc(N4CCN(C(=O)CO)CC4)cc3OC)ncc2Cl)c1 [Compound I-3, N-(3-(5-chloro-2-(4-(4-(2-hydroxyacetyl)piperazin-1-yl)-2-methoxyphenylamino)pyrimidin-4-yloxy)phenyl)acrylamide] | > 1000 | 1 to 10 | 500 to 1000 | >5 | >45 | >5
7 | C=CC(=O)Nc1cccc(Oc2nc(Nc3ccc(N4CCN(C(=O)NC)CC4)cc3OC)ncc2C(F)(F)F)c1 [Compound I-21, 4-(4-(4-(3-acrylamidophenoxy)-5-(trifluoromethyl)pyrimidin-2-ylamino)-3-methoxyphenyl)-N-methylpiperazine-1-carboxamide] | > 1000 | 10 to 30 | 100 to 500 | >5 | >20 | >1

The next lines start with results.

Row | EC50 [1] [nM] | IC50 [2] [nM] | EC50 [5] [nM] | Ratio WT/mutant (H1975) [5] | Compound | Ratio WT/mutant (HCC827) [3] | Ratio WT/mutant (H1975) [4]
8 | > 1000 | 1 to 10 | < 10 | – | C=CC(=O)Nc1cccc(Nc2nc(Nc3ccc(N4CCN(C(=O)CC)CC4)cc3OC)ncc2C(F)(F)F)c1 [Compound I-35, N-(3-(2-(2-methoxy-4-(4-propionylpiperazin-1-yl)phenylamino)-5-(trifluoromethyl)pyrimidin-4-ylamino)phenyl)acrylamide] | >25 | >10
9 | > 1000 | 10 to 30 | 10 to 100 | >50 | C=CC(=O)Nc1cccc(Nc2nc(Nc3ccc(N4CCN(C(C)=O)[C@H](C(=O)OC)C4)cc3OC)ncc2C(F)(F)F)c1 [Compound I-48, (S)-methyl 1-acetyl-4-(4-(4-(3-acrylamidophenylamino)-5-(trifluoromethyl)pyrimidin-2-ylamino)-3-methoxyphenyl)piperazine-2-carboxylate] | >15 | >10
10 | > 1000 | 10 to 30 | > 1000 | >1 | C=CC(=O)Nc1cccc(Nc2nc(Nc3ccc(N4CCN(C(C)=O)CC4)cc3OC)ncc2Cl)c1 [Compound I-8, N-(3-(2-(4-(4-acetylpiperazin-1-yl)-2-methoxyphenylamino)-5-chloropyrimidin-4-ylamino)phenyl)acrylamide] | >20 | >1
11 | > 1000 | 10 to 30 | 100 to 500 | >5 | C=CC(=O)Nc1cccc(Nc2nc(Nc3ccc(N4CCCN(C(C)=O)CC4)cc3OC)ncc2C(F)(F)F)c1 [Compound I-7, N-(3-(2-(4-(4-acetyl-1,4-diazepan-1-yl)-2-methoxyphenylamino)-5-(trifluoromethyl)pyrimidin-4-ylamino)phenyl)acrylamide] | >10 | >1
12 | > 1000 | 1 to 10 | 10 to 100 | >20 | C=CC(=O)Nc1cccc(Nc2nc(Nc3ccc(N4CCN(C(=O)CO)CC4)cc3OC)ncc2C(F)(F)F)c1 [Compound I-6, N-(3-(2-(4-(4-(2-hydroxyacetyl)piperazin-1-yl)-2-methoxyphenylamino)-5-(trifluoromethyl)pyrimidin-4-ylamino)phenyl)acrylamide] | >40 | >10
13 | > 1000 | 1 to 10 | 10 to 100 | >50 | C=CC(=O)Nc1cccc(Nc2nc(Nc3ccc(N4CCN(C(C)=O)CC4)cc3OC(F)(F)F)ncc2C(F)(F)F)c1 [Compound I-33, N-(3-(2-(4-(4-acetylpiperazin-1-yl)-2-(trifluoromethoxy)phenylamino)-5-(trifluoromethyl)pyrimidin-4-ylamino)phenyl)acrylamide] | >15 | >30
14 | > 1000 | 10 to 30 | > 1000 | >1 | C=CC(=O)Nc1cccc(Nc2nc(Nc3ccc(N4CCN(C(C)=O)CC4)cc3OC)ncc2Br)c1 [Compound I-40, N-(3-(2-(4-(4-acetylpiperazin-1-yl)-2-methoxyphenylamino)-5-bromopyrimidin-4-ylamino)phenyl)acrylamide] | >10 | >5
15 | > 1000 | 300 to 1000 | 500 to 1000 | >5 | C=CC(=O)Nc1cccc(Nc2nc(Nc3ccc(N4CCCN(C(=O)OC(C)(C)C)CC4)cc3OC)ncc2C(F)(F)F)c1 [Compound I-44, tert-butyl 4-(4-(4-(3-acrylamidophenylamino)-5-(trifluoromethyl)pyrimidin-2-ylamino)-3-methoxyphenyl)-1,4-diazepane-1-carboxylate] | >5 | >5
16 | > 1000 | 1 to 10 | 10 to 100 | >20 | C=CC(=O)Nc1cccc(Nc2nc(Nc3ccc(N4CCS(=O)(=O)CC4)cc3OC)ncc2C(F)(F)F)c1 [Compound I-49, N-(3-(2-(2-methoxy-4,4-dioxo-4-thiomorpholinophenylamino)-5-(trifluoromethyl)pyrimidin-4-ylamino)phenyl)acrylamide] | >25 | >10
